Results published in paper PMC6058519, “Retro-inverso follicle-stimulating hormone peptide-mediated polyethylenimine complexes for targeted ovarian cancer gene therapy” (Drug Delivery, 2018).
Where no end group is shown, it is not given here.

Key:
[1] = biological target: T1, Aminopeptidase M (leucine aminopeptidase, microsomal from porcine kidney) (Sus scrofa, UniProt P15145); test: In vitro stability of peptides against aminopeptidase M; format: in vitro ADME; details: aminopeptidase M 1 μg/mL, 37 °C, peptide 0.5 mg/mL, incubation up to 12 h, RP-HPLC C18, UV 214 nm, triplicate
T1 construct: purchased Sigma-Aldrich; host or cells: porcine kidney microsomes (tissue-derived)
T1 sequence (P15145 1-963): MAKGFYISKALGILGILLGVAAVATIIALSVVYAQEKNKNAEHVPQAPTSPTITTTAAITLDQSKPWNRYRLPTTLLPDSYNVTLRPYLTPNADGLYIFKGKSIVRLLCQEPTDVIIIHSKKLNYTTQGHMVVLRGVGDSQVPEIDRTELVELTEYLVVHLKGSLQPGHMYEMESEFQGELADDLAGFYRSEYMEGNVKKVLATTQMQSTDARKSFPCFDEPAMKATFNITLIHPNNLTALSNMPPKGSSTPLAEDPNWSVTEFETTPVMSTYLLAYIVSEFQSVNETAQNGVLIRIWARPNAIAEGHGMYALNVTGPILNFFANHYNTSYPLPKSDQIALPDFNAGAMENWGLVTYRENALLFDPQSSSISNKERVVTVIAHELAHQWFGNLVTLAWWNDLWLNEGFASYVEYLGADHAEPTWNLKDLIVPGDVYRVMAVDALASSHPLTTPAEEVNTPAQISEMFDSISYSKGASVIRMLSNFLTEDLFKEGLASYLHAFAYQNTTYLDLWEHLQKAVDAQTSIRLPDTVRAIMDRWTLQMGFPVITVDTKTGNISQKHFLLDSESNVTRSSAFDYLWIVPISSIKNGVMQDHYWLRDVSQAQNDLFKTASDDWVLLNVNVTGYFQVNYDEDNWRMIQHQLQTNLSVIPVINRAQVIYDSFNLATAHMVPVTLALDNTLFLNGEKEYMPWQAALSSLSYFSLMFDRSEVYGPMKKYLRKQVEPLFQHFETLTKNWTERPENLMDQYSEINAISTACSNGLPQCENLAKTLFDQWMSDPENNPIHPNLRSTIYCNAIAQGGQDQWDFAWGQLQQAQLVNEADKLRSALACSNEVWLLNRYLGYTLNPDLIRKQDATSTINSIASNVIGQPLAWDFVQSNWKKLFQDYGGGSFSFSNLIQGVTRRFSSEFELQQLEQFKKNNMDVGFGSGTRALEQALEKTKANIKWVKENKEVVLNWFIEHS
Description: L-FP21, D-FP21, Rhodamine-L-FP21, and Rhodamine-D-FP21 were purchased from ChinaPeptides (Shanghai, China) (Figure S3). Rat serum was obtained from Jianlun Biology Technology Co. (Guangzhou, China). Aminopeptidase M (leucine aminopeptidase, microsomal from porcine kidney Type VI − S, lyophilized powder, EC 3.4.11.2) and the Endotoxin-free Plasmid Maxiprep Kit used to purify the plasmid DNA before application were obtained from Sigma–Aldrich (USA). Cell Counting Kit-8 (CCK-8 Kit) was purchased from Beyotime Biotechnology (Tianjing, China). Odyssey Blocking Buffer was obtained from LI-COR Biosciences (Lincoln, Nebraska, USA). The plasmids encoding enhanced green fluorescence protein (EGFP; pEGFP-N) were purchased from KeyGEN BioTECH (Nanjing, China). The vector construction of GRO-α shRNA was pcDNA6.2-GW/Emgfp-miR (Invitrogen, Carlsbad, CA), and the target knockdown gene encoding was TGGTTTT GGCCACTG. […]
The L-FP21 and D-FP21 peptides were diluted to 0.5 mg/mL and incubated at 37 °C for 12 h for the biostability test against 20% rat serum. At predetermined time intervals, 100 μL of the sample was removed and analyzed using reverse-phase high-performance liquid chromatography (HPLC; Waters Acquity H-Class Bio, Waters Co. Ltd., Milford, MA) on a bridged ethylene hybrid (BEH) C18 column (2.1 mm ×50 mm, 1.7 μm) using a gradient method. […] The peptides were then analyzed as described above. […]

[2] = In vitro stability of peptides in 20% rat serum; format: in vitro ADME; details: 37 °C, peptide 0.5 mg/mL, incubation up to 12 h, RP-HPLC C18, UV 214 nm, triplicate
Protocol: The L-FP21 and D-FP21 peptides were diluted to 0.5 mg/mL and incubated at 37 °C for 12 h for the biostability test against 20% rat serum. At predetermined time intervals, 100 μL of the sample was removed and analyzed using reverse-phase high-performance liquid chromatography (HPLC; Waters Acquity H-Class Bio, Waters Co. Ltd., Milford, MA) on a bridged ethylene hybrid (BEH) C18 column (2.1 mm ×50 mm, 1.7 μm) using a gradient method. The mobile phase A was purified water containing 0.1% (v/v) formic acid (FA). The mobile phase B was acetonitrile containing 0.1% FA. The 30-min linear elution gradient ran from 5% B to 45% B in […] at a flow rate of 0.6 mL/min with a detection wavelength of 214 nm. We used aminopeptidase to further investigate the stability of L-FP21 or D-FP21 in proteolytic enzymes. The aminopeptidase was added with a final concentration of 1 μg/mL. The peptides were then analyzed as described above. All the experiments were performed in triplicate.

YTRDLVYGDPARPGIQGTGTF [L-FP21]
time to complete degradation in aminopeptidase [1]: ≤ 6 h | time to complete degradation in rat serum [2]: ≤ 2 h
